From publication PMC9788040, “Molecular Diversity of Linear Peptides Revealed by Transcriptomic Analysis of the Venom Gland of the Spider Lycosa poonaensis” (Toxins, 2022)
Where no end group is shown, it is not given here.

Experiments:
[1] = test system: sheep red blood cells (sRBCs); experiment: Hemolytic activity; type: cell-based; details: sheep RBC 4% (v/v) in PBS pH 7.2, 1 h 37 °C, absorbance 450 nm; 3 experiments in triplicate; read-out: Hemolysis EC50
Experimental: Fresh sheep red blood cells (sRBCs) were washed three times with PBS (35 mM phosphate buffer and 150 mM NaCl, pH 7.2) through centrifugation at 2000× g for 5 min and resuspended in PBS. Specifically, aliquots of each sample in PBS (50 μL) were added to 50 μL of sRBC suspension [4% (v/v) in the final] in a microtube and incubated for 1 h at 37 °C; then, the samples were centrifuged at 2000× g for 5 min. The supernatant was transferred to a 96-well plate to monitor hemoglobin release, which was done by measuring the absorbance of the supernatant at 450 nm using a Benchmark microplate reader. PBS and 0.1% Triton X-100 were used as the negative and positive controls, respectively. The experiments were repeated 3 times, each time in triplicate. In the equation to calculate the hemolysis rate, AP refers to peptide sample absorbance, AT refers to 0.1% Triton X-100 positive control absorbance, and A0 refers to PBS sample negative control absorbance. Hemolysis rate (%)=Ap−A0/AT−A0×100

[2] = test system: Bacillus subtilis NBRC 3009; experiment: Antibacterial activity, liquid growth inhibition assay; type: cell-based; details: B. subtilis NBRC 3009, LB medium, overnight 37 °C, A595; MIC as interval [a]–[b]; at least three experiments in duplicate
Experimental: (§1) Antibacterial activity was measured using the Gram-negative bacteria Escherichia coli NBRC 3972 and the Gram-positive bacteria Staphylococcus aureus NBRC 13276 and Bacillus subtilis NBRC 3009 (NITE Biological Resource Center, Chiba, Japan), using a liquid growth inhibition assay. Each bacteria strain was grown in a liquid LB medium (1% tryptone, 0.5% yeast extract, and 1% NaCl). Aliquots of each sample (10 µL) were incubated with 90 µL of a suspension of a mid-logarithmic phase culture of bacteria in a 96-well plate at a starting absorbance of A595 = 0.001 in the LB medium; the incubation occurred overnight at 37 °C with continuous shaking. Growth inhibition was monitored by measuring the absorbance at 595 nm using a Benchmark microplate reader (Bio-Rad, Hercules, CA, USA). Experiments were repeated at least three times, each time in duplicate. Minimal inhibitory concentrations (MICs) are expressed as the interval of concentrations [a]–[b], where [a] is the highest concentration at which bacteria still grow and [b] is the lowest concentration causing growth inhibition.

[3] = test system: Staphylococcus aureus NBRC 13276; experiment: as above; type: cell-based; details: S. aureus NBRC 13276, LB medium, overnight 37 °C, A595; MIC as interval [a]–[b]; at least three experiments in duplicate
Experimental: as §1

[4] = test system: Escherichia coli NBRC 3972; experiment: as above; type: cell-based; details: E. coli NBRC 3972, LB medium, overnight 37 °C, A595; MIC as interval [a]–[b]; at least three experiments in duplicate
Experimental: as §1

[5] = Secondary structure estimation by CD spectroscopy (DichroWeb); type: physicochemical; details: 25 °C, DichroWeb CDSSTR, reference dataset 4
Experimental: CD spectra were recorded on a J-820 spectropolarimeter (Jasco, Tokyo, Japan). The spectra were measured between 190–260 nm (in 0.2-nm steps) at 25 °C with a 1-mm-pathlength cell. Samples were dissolved in a 0.2 M phosphate buffer (pH 7.0) or 50% TFE in a 0.2 M phosphate buffer (pH 7.0) at a concentration of 10 µM. Five scans were averaged for each sample. The percentages of secondary structures were estimated from the spectra using the DichroWeb server. The helical wheel projection was performed using the online software HeliQuest (https://heliquest.ipmc.cnrs.fr, accessed on 14 July 2022).

[6] = test system: crickets (Acheta domesticus); experiment: Insect toxicity (paralysis after injection); type: in vivo; details: injection into abdominal region, paralysis counted 30 min after injection, 10 insects per measurement, parentheses = 95% confidence intervals
Experimental: Insect toxicity was tested on crickets (Acheta domesticus, 50 ± 5 mg body weight) by injecting 1–2 µL of each sample dissolved in distilled water into their abdominal region. Distilled water was injected as a control. For each measurement, 10 insects were used, and the number of paralyzed insects was counted 30 min after injection. The doses required to induce paralysis in half of the test animals (PD50) were determined using the statistical software PRISM (GraphPad Software, La Jolla, CA, USA).

[7] = solvent I: 0.2 M phosphate buffer pH 7.0, 10 µM
[8] = solvent II: 50% TFE in 0.2 M phosphate buffer pH 7.0, 10 µM

Row | Substance | EC50 [1] | Antibacterial Activity MIC, B. subtilis [2] | Antibacterial Activity MIC, S. aureus [3] | Antibacterial Activity MIC, E. coli [4] | Percentage of Secondary Structure, Turns [5, 7] | Percentage of Secondary Structure, Unordered [5, 7] | Percentage of Secondary Structure, α-Helix [5, 7] | Percentage of Secondary Structure, β-Sheet [5, 7] | Percentage of Secondary Structure, Turns [5, 8] | Percentage of Secondary Structure, Unordered [5, 8] | Percentage of Secondary Structure, α-Helix [5, 8] | Percentage of Secondary Structure, β-Sheet [5, 8] | Insect Toxicity PD50 [6]
1 | AGLGKIGAFIKKAYAIYKAKAA-NH2 [M-lycotoxin-Lp5a] | > 100 µM | 1.25 to 2.5 µM | 50 to 100 µM | 1.25 to 2.5 µM | 28% | 33% | 15% | 23% | 10% | 18% | 55% | 17% | 50 (18.3–138) µg/g Weight
2 | AGLGKIGALIKKAYAIYKAKAA-NH2 [M-lycotoxin-Lp5b] | > 100 µM | 1.25 to 2.5 µM | 50 to 100 µM | 1.25 to 2.5 µM | 25% | 34% | 7% | 33% | 11% | 23% | 51% | 14% | 44 (12.2–160) µg/g Weight
3 | IWLTALKFIGKNLGKHFAKQQLSKL-NH2 [M-lycotoxin-Lp3a] | > 100 µM | 0.8 to 1.6 µM | 0.4 to 0.8 µM | 0.8 to 1.6 µM |  |  |  |  |  |  |  |  | 
4 | KIKWFKAMKSIAKYVAKKQLKKHLGGEN [M-lycotoxin-Lp4] |  |  |  |  | 26% | 33% | 8% | 33% | 13% | 23% | 51% | 11% | 10 (5.8–17.1) µg/g Weight
5 | MVWLLPLKFLASHVAMEQLSKLGSKIATKL-NH2 [M-lycotoxin-Lp1a] | > 100 µM | 12.5 to 25 µM | 12.5 to 25 µM | 6.2 to 12.5 µM |  |  |  |  |  |  |  |  | 
6 | SKWKAFLAKMKEIASEAL-NH2 [M-lycotoxin-Lp6] | > 100 µM | 5 to 12.5 µM | >100 µM | 5 to 12.5 µM |  |  |  |  |  |  |  |  | 
7 | VIWLPALKFLASHIAMEQLSKL-NH2 [M-lycotoxin-Lp1b] | > 100 µM | 6.2 to 12.5 µM | 3.1 to 6.2 µM | 50 to 100 µM |  |  |  |  |  |  |  |  | 
